From patent US7994307B2, “RNAi modulation of the BCR-ABL fusion gene and uses thereof” (Alnylam Pharmaceuticals, Inc., priority 2004, dated 2011)
Entries after “also recorded” stand apart in the source; their conditions may differ.

How the values were obtained:
p210Bcr-Abl (e14a2) = assay: Western blot of Bcr-Abl protein in 32Dp210/e14a2 cells after siRNA electroporation; format: cell-based, murine; settings: for Bcr-Abl protein levels: 32Dp210/e14a2 cells
Procedure: Protein assay: Western blot analysis was performed ˜24 h following the last siRNA -treatment or ˜96 hours following transfection with the pSUPER siRNA-expression vector as described (Goetz A W, et al., Cancer Res. 2001, 61:7635)
(§1) siRNA-transfection: siRNAs were transfected into the murine cell lines 32Dp210Bcr-Abl-e14a2, -e13a2, 32Dp190Bcr-Abl-e1a2 and the human leukemic cell line MEG-01 using electroporation. Cell density was adjusted to 2.5-5×10^6/ml in RPMI/10% FCS. 800 μl of this cell suspension were mixed with siRNA in a 4 mm electroporation cuvette. Cells were electroporated by means of an EasyJect electroporator (peqlab, Erlangen, Germany) using a single-pulse protocol (250 V, 1800 μF, 8.). This treatment was repeated in intervals of 24 hours as indicated.
(§2) In 32Dp210Bcr-Abl-e14a2, -e13a2 and 32Dp190Bcr-Abl-e1a2 inhibition of Bcr-Abl can be compensated by addition of exogenous growth factor to the medium. Therefor, recombinant murine IL-3, (1 ng/ml) was added to the growth medium during siRNA treatment of these cell lines. Following the last siRNA treatment cells were washed and factor deprived before starting the different examination procedures (Western blot/MTT).
We used three murine hematopoetic 32D cell lines expressing either p210Bcr-Abl (e14a2), p210Bcr-Abl (e13a2) or p190Bcr-Abl (e1a2) to study the effectiveness of siRNAs to silence each of these human Bcr-Abl fusion breakpoint variants. In addition, experiments were performed in human Ph+leukemia cells (K562, MEG-01). All siRNAs used were directed to breakpoints of the Bcr and Abl sequence of the respective Bcr-Abl mRNA. RNAi-efficiency was assayed via analysis of Bcr-Abl protein levels and by monitoring the biological effect using MTT viability assay.

32Dp210/e14a2 cells = assay: MTT viability assay in 32Dp210/e14a2 cells after siRNA electroporation; format: cell-based, murine
Procedure: (§3) Survival Assay: Following the last siRNA treatment cells were seeded in 96 well plates and cultivated for another ˜48 hours. Cell survival was then measured by MTT assay as described (Van der Kuip H, et al., Blood. 2001, 98:1532)
as §1, §2

K562 cells = assay: Viability/growth of K562 cells after lipofection with siRNA; format: cell-based, human
Procedure: as §3
For the transfection of siRNA molecules into the human K562 cells we used Lipofectamin™ 2000 (Invitrogen, Karlsruhe). 1.5 Mio. cells were plated in 1.5 ml RPMI/10% FCS w/o antibiotics into a 6 well plate. For each well 500 μl transfection solution was prepared, containing 8.4 μg siRNA and 21 μl Lipofectamin in OPTI-MEM I reduced serum medium (Gibco, Karlsruhe). The cells were incubated 5 hours with the transfection solution, then the medium was changed to RPMI/10% FCS complemented with Penicillin/Streptomycin. When treated several times, cells were counted ˜24 h following treatment, diluted to 1 Mio/ml and seeded again in a 6 well plate (1.5 ml cell suspension per well). Transfection was then repeated exactly as the day before.

Bcr-Abl (e14a2) = assay: Western blot of Bcr-Abl protein in primary CD34 positive cells of CML patients (e14a2); format: cell-based, human; settings: two electroporations, compared to BAF8 or BAF16
Procedure: FIG. 4: CD34 positive cells isolated from 3 newly diagnosed and untreated Philadelphia chromosome-positive CML patients in chronic phase and positive for bcr-abl-e14a2 by Ficoll-Hypaque density gradient centrifugation and affinity column purification were treated with siRNAs BAF7 (e14a2 specific, Patient 1), BAF8 (mismatch control, Patient 1), BAF12 (e14a2 specific, Patient 2+3), and BAF16 (e13a2 specific, Patient 2+3). Cells were diluted to a density of 2.5×10^6 in 800 μl growth medium, mixed with 12.8 μl of a 50 μM solution of the respective siRNA in a 4-mm electroporation cuvette, and electroporated using a single pulse protocol (250V, 1800 μF). This treatment was repeated after 24 hours, the cells were washed, incubated for another 24 hours, and harvested for western blot analysis. […] Additionally, BAF12 treatment compromised Bcr-Abl activity.
CD34 positive cells were isolated from 3 newly diagnosed and untreated Philadelphia chromosome-positive CML patients in chronic phase. Informed consent was obtained by the patients prior to collection of cells. Mononuclear cells were harvested by Ficoll-Hypaque density gradient centrifugation (Seromed, Berlin, Germany). CD34 positive cells were isolated using a stem cell isolation kit and a MACS column (Miltenyi Biotech, Bergisch Gladbach, Germany) according to manufacturer's instructions. […]

M07p210/e14a2 cells = assay: Induction of apoptosis by imatinib mesylate in M07p210/e14a2 cells; format: cell-based, human; settings: BAF7-treated

p210Bcr-Abl (e14a2), sequence (P11274+P00519 fused): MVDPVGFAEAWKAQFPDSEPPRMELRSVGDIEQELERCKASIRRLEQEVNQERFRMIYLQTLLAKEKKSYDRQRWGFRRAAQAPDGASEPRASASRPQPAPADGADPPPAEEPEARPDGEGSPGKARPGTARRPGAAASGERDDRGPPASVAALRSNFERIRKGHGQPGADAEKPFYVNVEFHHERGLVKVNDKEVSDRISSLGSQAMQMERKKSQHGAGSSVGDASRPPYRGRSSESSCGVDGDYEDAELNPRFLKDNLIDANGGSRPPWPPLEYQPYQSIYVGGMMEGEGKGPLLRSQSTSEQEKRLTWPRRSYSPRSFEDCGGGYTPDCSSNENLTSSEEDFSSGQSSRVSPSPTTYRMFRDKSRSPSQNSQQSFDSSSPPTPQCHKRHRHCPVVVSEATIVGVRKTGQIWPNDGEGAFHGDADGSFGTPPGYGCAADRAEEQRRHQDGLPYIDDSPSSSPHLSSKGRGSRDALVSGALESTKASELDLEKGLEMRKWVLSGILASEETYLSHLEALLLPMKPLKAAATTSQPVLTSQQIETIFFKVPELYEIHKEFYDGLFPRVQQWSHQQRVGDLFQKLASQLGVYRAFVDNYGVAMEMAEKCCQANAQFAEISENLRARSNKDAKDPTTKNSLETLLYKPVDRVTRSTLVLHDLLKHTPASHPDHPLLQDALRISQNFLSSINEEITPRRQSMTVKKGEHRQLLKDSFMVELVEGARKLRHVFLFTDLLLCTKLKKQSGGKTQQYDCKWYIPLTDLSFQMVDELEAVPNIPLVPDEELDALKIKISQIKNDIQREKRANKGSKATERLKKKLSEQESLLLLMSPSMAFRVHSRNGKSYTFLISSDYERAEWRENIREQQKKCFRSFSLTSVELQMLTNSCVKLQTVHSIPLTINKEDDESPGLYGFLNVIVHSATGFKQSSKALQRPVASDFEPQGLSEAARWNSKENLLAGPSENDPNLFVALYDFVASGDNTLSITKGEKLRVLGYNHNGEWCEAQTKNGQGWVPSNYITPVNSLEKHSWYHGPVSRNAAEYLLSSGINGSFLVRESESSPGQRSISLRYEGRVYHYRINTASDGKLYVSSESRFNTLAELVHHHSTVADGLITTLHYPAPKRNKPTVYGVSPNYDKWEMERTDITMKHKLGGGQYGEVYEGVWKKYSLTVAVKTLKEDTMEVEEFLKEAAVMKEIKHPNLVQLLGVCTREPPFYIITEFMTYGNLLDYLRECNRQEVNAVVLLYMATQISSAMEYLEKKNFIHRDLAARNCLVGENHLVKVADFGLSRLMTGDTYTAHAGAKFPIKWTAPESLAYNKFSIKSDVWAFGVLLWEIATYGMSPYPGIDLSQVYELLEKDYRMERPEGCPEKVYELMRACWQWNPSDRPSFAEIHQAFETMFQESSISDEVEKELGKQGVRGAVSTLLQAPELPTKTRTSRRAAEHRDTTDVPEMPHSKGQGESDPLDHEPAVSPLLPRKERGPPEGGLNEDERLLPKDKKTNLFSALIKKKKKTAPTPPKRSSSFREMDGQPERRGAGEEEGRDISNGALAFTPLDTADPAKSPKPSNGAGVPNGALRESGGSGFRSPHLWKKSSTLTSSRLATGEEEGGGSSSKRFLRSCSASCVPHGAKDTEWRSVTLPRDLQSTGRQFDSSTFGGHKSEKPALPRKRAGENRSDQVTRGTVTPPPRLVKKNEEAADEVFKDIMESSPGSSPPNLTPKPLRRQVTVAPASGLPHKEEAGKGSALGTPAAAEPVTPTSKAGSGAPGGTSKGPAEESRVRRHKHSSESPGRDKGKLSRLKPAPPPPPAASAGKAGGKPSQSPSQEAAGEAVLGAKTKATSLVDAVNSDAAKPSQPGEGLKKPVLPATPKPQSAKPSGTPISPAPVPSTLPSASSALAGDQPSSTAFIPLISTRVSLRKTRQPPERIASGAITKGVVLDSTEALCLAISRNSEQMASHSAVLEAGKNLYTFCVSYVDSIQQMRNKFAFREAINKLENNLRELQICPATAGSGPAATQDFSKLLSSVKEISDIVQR
Bcr-Abl (e14a2), sequence (P11274+P00519 fused): as above

BAF7: siRNA duplex, sense SEQ ID No. 1, antisense SEQ ID No. 23, specific for Bcr-Abl-e14a2 (sense CAGAGUUCAAAAGCCCUUCAG; antisense CUGAAGGGCUUUUGAACUCUGCU; listed as RNA, chemistry not given here)
Bcr-Abl protein levels (p210Bcr-Abl (e14a2); four consecutive treatments at intervals of 24 h): reduced the amount of Bcr-Abl protein to the detection limit; also recorded: almost complete disappearance of Bcr-Abl protein
Bcr-Abl protein levels (p210Bcr-Abl (e14a2); single siRNA treatment, Western blot): notable reduction; also recorded: significant reduction
recovery of Bcr-Abl protein levels (p210Bcr-Abl (e14a2); 32Dp210Bcr-Abl (e14a2) cells, after one single treatment): quickly recovered to pre-treatment levels
viability (32Dp210/e14a2 cells; four treatments): virtual loss of viability; also recorded: virtually complete loss of viability
viability relative to electroporation control cells (EPC, 100%) (32Dp210/e14a2 cells; single treatment, MTT): approximately 59%
viability relative to EPC (32Dp210/e14a2 cells; treated four times, MTT): ≤ 2.5%
growth (K562 cells; K562, 48 hours following one single treatment, lipofectamin 2000): only a minimal growth reduction
viability (K562 cells; K562, 48 hours following the third lipofection at intervals of 24 hours): 45%
Bcr-Abl protein levels (Bcr-Abl (e14a2)): significant reduction
induction of apoptosis by 0.05 μM imatinib mesylate in siRNA-treated cells (M07p210/e14a2 cells): significant induction of apoptosis
